Our source for the IC50 values is US20080200454A1, “CARBON-LINKED TETRAHYDRO-PYRAZOLO-PYRIDINE MODULATORS OF CATHEPSIN S” (priority 2007, published 2008).

In one assay the target is Recombinant human cathepsin S (CatS) (Homo sapiens, UniProt P25774). Nature of the assay: Recombinant human cathepsin S (CatS) inhibition assay, fluorogenic substrate Z-Valine-Valine-Arginine-AMC.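 Also: Baculovirus-expressed CatS in pH 5.0 sodium acetate buffer with DTT and NaCl, fluorescence read each minute over 20 min, inhibition derived from rate slope.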
Recombinant human cathepsin S (CatS), sequence (P25774 115-331): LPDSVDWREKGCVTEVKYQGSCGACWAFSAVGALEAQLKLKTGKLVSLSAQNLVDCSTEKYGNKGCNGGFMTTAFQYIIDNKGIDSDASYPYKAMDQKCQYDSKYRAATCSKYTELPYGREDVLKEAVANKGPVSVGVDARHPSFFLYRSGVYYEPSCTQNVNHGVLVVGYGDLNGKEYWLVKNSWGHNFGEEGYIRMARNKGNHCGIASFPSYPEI
Conditions: not given
As for `C[C@H]1COCCN1CCCn1nc(-c2ccc(Cl)c(C#Cc3ccc(Cl)c(CNCC(=O)O)c3)c2)c2c1CCNC2` [Example 553, N-[(2-Chloro-5-{[2-chloro-5-(1-{3-[(3S)-3-methylmorpholin-4-yl]propyl}-4,5,6,7-tetrahydro-1H-pyrazolo[4,3-c]pyridin-3-yl)phenyl]ethynyl}phenyl)methyl]glycine], the IC50 amounted to 0.45 µM.

With `NC(=O)C(=O)N1CCc2c(c(-c3ccc(Cl)c(C#Cc4ccc(Cl)c(C(=O)NCCCO)c4)c3)nn2CCCN2CCSCC2)C1` [Example 554, 5-[(5-{5-[Amino(oxo)acetyl]-1-(3-thiomorpholin-4-ylpropyl)-4,5,6,7-tetrahydro-1H-pyrazolo[4,3-c]pyridin-3-yl}-2-chlorophenyl)ethynyl]-2-chloro-N-(3-hydroxypropyl)benzamide], the IC50 was determined as 0.02 µM.

As for `NC(=O)N1CCc2c(c(-c3ccc(Cl)c(C#Cc4ccc(Cl)c(C(=O)NCCCO)c4)c3)nn2CCCN2CCSCC2)C1` [Example 555, 3-[4-Chloro-3-({4-chloro-3-[(3-hydroxypropyl)carbamoyl]phenyl}ethynyl)phenyl]-1-(3-thiomorpholin-4-ylpropyl)-1,4,6,7-tetrahydro-5H-pyrazolo[4,3-c]pyridine-5-carboxamide], the concentration for half-maximal inhibition (IC50) turned out to be 0.02 µM.

In the case of `C[C@H]1COCCN1CCCn1nc(-c2ccc(Cl)c(C#Cc3ccc(Cl)c(C(=O)NC[C@@H]4CCCN4)c3)c2)c2c1CCN(C(=O)C(N)=O)C2` [Example 556, 5-{[5-(5-[Amino(oxo)acetyl]-1-{3-[(3S)-3-methylmorpholin-4-yl]propyl}-4,5,6,7-tetrahydro-1H-pyrazolo[4,3-c]pyridin-3-yl)-2-chlorophenyl]ethynyl}-2-chloro-N-[(2S)-pyrrolidin-2-ylmethyl]benzamide], the IC50 came to 0.03 µM.

`NC(=O)C(=O)N1CCc2c(c(-c3ccc(Cl)c(C#Cc4ccc(Cl)c(C(=O)NC[C@@H]5CCCN5)c4)c3)nn2CCCN2CCSCC2)C1` [Example 557, 5-[(5-{5-[Amino(oxo)acetyl]-1-(3-thiomorpholin-4-ylpropyl)-4,5,6,7-tetrahydro-1H-pyrazolo[4,3-c]pyridin-3-yl}-2-chlorophenyl)ethynyl]-2-chloro-N-[(2S)-pyrrolidin-2-ylmethyl]benzamide]: the IC50 worked out at 0.03 µM.

Turning to `NC(=O)N1CCc2c(c(-c3ccc(Cl)c(C#Cc4ccc(Cl)c(C(=O)NC[C@@H]5CCCN5)c4)c3)nn2CCCN2CCSCC2)C1` [Example 558, 3-{4-Chloro-3-[(4-chloro-3-{[(2S)-pyrrolidin-2-ylmethyl]carbamoyl}phenyl)ethynyl]phenyl}-1-(3-thiomorpholin-4-ylpropyl)-1,4,6,7-tetrahydro-5H-pyrazolo[4,3-c]pyridine-5-carboxamide], the IC50 was found to be 0.03 µM.

In the case of `C[C@H]1COCCN1CCCn1nc(-c2ccc(Cl)c(C#Cc3ccc(Cl)c(COC4CCN(C(=O)OC(C)(C)C)C4)c3)c2)c2c1CCN(C(=O)C(N)=O)C2` (stereo partly drawn) [Example 559, tert-Butyl 3-[(5-{[5-(5-[amino(oxo)acetyl]-1-{3-[(3S)-3-methylmorpholin-4-yl]propyl}-4,5,6,7-tetrahydro-1H-pyrazolo[4,3-c]pyridin-3-yl)-2-chlorophenyl]ethynyl}-2-chlorobenzyl)oxy]pyrrolidine-1-carboxylate], the IC50 came out at 0.1 µM.

On to `C[C@H]1COCCN1CCCn1nc(-c2ccc(Cl)c(C#Cc3ccc(Cl)c(CNCC(C)(C)O)c3)c2)c2c1CCN(C(=O)C(N)=O)C2` [Example 561, 2-(3-{4-Chloro-3-[(4-chloro-3-{[(2-hydroxy-2-methylpropyl)amino]methyl}phenyl)ethynyl]phenyl}-1-{3-[(3S)-3-methylmorpholin-4-yl]propyl}-1,4,6,7-tetrahydro-5H-pyrazolo[4,3-c]pyridin-5-yl)-2-oxoacetamide], for which the IC50 was 0.03 µM.

Take `CC(C)(O)CNCc1cc(C#Cc2cc(-c3nn(CCCN4CCSCC4)c4c3CN(C(=O)C(N)=O)CC4)ccc2Cl)ccc1Cl` [Example 562, 2-[3-{4-Chloro-3-[(4-chloro-3-{[(2-hydroxy-2-methylpropyl)amino]methyl}phenyl)ethynyl]phenyl}-1-(3-thiomorpholin-4-ylpropyl)-1,4,6,7-tetrahydro-5H-pyrazolo[4,3-c]pyridin-5-yl]-2-oxoacetamide]: the IC50 stood at 0.03 µM.

Take `NC(=O)C(=O)N1CCc2c(c(-c3ccc(Cl)c(C#Cc4ccc(Cl)c(CN[C@@H](CO)c5ccccc5)c4)c3)nn2CCCN2CCSCC2)C1` [Example 563, 2-[3-(4-Chloro-3-{[4-chloro-3-({[(1R)-2-hydroxy-1-phenylethyl]amino}methyl)phenyl]ethynyl}phenyl)-1-(3-thiomorpholin-4-ylpropyl)-1,4,6,7-tetrahydro-5H-pyrazolo[4,3-c]pyridin-5-yl]-2-oxoacetamide]: the IC50 came out at 0.03 µM.

For the molecule `NC(=O)C(=O)N1CCc2c(c(-c3ccc(Cl)c(C#Cc4ccc(Cl)c(C(=O)N[C@@H](CO)c5ccccc5)c4)c3)nn2CCCN2CCSCC2)C1` [Example 564, 5-[(5-{5-[Amino(oxo)acetyl]-1-(3-thiomorpholin-4-ylpropyl)-4,5,6,7-tetrahydro-1H-pyrazolo[4,3-c]pyridin-3-yl}-2-chlorophenyl)ethynyl]-2-chloro-N-[(1R)-2-hydroxy-1-phenylethyl]benzamide], the IC50 was 0.03 µM.

For the molecule `CCNCc1cc(C#Cc2cc(-c3nn(CCCN4CCOC[C@@H]4C)c4c3CN(C(=O)C(N)=O)CC4)ccc2Cl)ccc1Cl` [Example 566, 2-(3-[4-Chloro-3-({4-chloro-3-[(ethylamino)methyl]phenyl}ethynyl)phenyl]-1-{3-[(3S)-3-methylmorpholin-4-yl]propyl}-1,4,6,7-tetrahydro-5H-pyrazolo[4,3-c]pyridin-5-yl)-2-oxoacetamide], the IC50 was found to be 0.02 µM.

Staying with this assay, now noted: CatS IC50.
For `NC(=O)N1CCc2c(c(-c3ccc(Cl)c(C#Cc4ccc(CN5CCC(N6C[C@H](O)CC6=O)CC5)cc4)c3)nn2CCCN2CCSCC2)C1` [Example 549, 3-(4-Chloro-3-{[4-({4-[(4R)-4-hydroxy-2-oxopyrrolidin-1-yl]piperidin-1-yl}methyl)phenyl]ethynyl}phenyl)-1-(3-thiomorpholin-4-ylpropyl)-1,4,6,7-tetrahydro-5H-pyrazolo[4,3-c]pyridine-5-carboxamide], the IC50 stood at 1.01 µM.

On to `CSc1ccc(CNCc2ccc(C#Cc3cc(-c4nn(CCCN5CCSCC5)c5c4CN(C(N)=O)CC5)ccc3Cl)cc2)cc1` [Example 550, 3-[4-Chloro-3-({4-[({[4-(methylsulfanyl)phenyl]methyl}amino)methyl]phenyl}ethynyl)phenyl]-1-(3-thiomorpholin-4-ylpropyl)-1,4,6,7-tetrahydro-5H-pyrazolo[4,3-c]pyridine-5-carboxamide], for which the IC50 was 0.1 µM.

Take `NC(=O)N1CCc2c(c(-c3ccc(Cl)c(C#Cc4ccc(CNCc5ccc(N)cc5)cc4)c3)nn2CCCN2CCSCC2)C1` [Example 551, 3-(3-{[4-({[(4-Aminophenyl)methyl]amino}methyl)phenyl]ethynyl}-4-chlorophenyl)-1-(3-thiomorpholin-4-ylpropyl)-1,4,6,7-tetrahydro-5H-pyrazolo[4,3-c]pyridine-5-carboxamide]: the IC50 turned out to be 0.1 µM.

`NC(=O)N1CCc2c(c(-c3ccc(Cl)c(C#Cc4ccc(C(=O)N5CC[C@@H](O)C5)cc4)c3)nn2CCCN2CCSCC2)C1` [Example 552, 3-{4-Chloro-3-[(4-{[(3R)-3-hydroxypyrrolidin-1-yl]carbonyl}phenyl)ethynyl]phenyl}-1-(3-thiomorpholin-4-ylpropyl)-1,4,6,7-tetrahydro-5H-pyrazolo[4,3-c]pyridine-5-carboxamide]: the IC50 worked out at 0.5 µM.

Regarding `C[C@H]1COCCN1CCCn1nc(-c2ccc(Cl)c(C#Cc3ccc(Cl)c(C(=O)NCCCO)c3)c2)c2c1CCN(C(=O)C(N)=O)C2` [Example 560, 5-{[5-(5-[Amino(oxo)acetyl]-1-{3-[(3S)-3-methylmorpholin-4-yl]propyl}-4,5,6,7-tetrahydro-1H-pyrazolo[4,3-c]pyridin-3-yl)-2-chlorophenyl]ethynyl}-2-chloro-N-(3-hydroxypropyl)benzamide], the half-inhibitory concentration (IC50) is 0.02 µM.

With `CNCCCNC(=O)c1cc(C#Cc2cc(-c3nn(CCCN4CCSCC4)c4c3CN(C(=O)C(N)=O)CC4)ccc2Cl)ccc1Cl` [Example 565, 5-[(5-{5-[Amino(oxo)acetyl]-1-(3-thiomorpholin-4-ylpropyl)-4,5,6,7-tetrahydro-1H-pyrazolo[4,3-c]pyridin-3-yl}-2-chlorophenyl)ethynyl]-2-chloro-N-[3-(methylamino)propyl]benzamide], the IC50 is 0.02 µM.

As for `NC(=O)C(=O)N1CCc2c(c(-c3ccc(Cl)c(C#Cc4ccc(Cl)c(C(=O)N5CCCC5)c4)c3)nn2CCCN2CCSCC2)C1` [Example 567, 2-[3-(4-Chloro-3-{[4-chloro-3-(pyrrolidin-1-ylcarbonyl)phenyl]ethynyl}phenyl)-1-(3-thiomorpholin-4-ylpropyl)-1,4,6,7-tetrahydro-5H-pyrazolo[4,3-c]pyridin-5-yl]-2-oxoacetamide], the IC50 turned out to be 0.16 µM.

For `NC(=O)C(=O)N1CCc2c(c(-c3ccc(Cl)c(C#Cc4ccc(Cl)c(C(=O)N5CCNCC5)c4)c3)nn2CCCN2CCSCC2)C1` [Example 568, 2-[3-(4-Chloro-3-{[4-chloro-3-(piperazin-1-ylcarbonyl)phenyl]ethynyl}phenyl)-1-(3-thiomorpholin-4-ylpropyl)-1,4,6,7-tetrahydro-5H-pyrazolo[4,3-c]pyridin-5-yl]-2-oxoacetamide], the IC50 is 0.14 µM.

`NC(=O)C(=O)N1CCc2c(c(-c3ccc(Cl)c(C#Cc4ccc(Cl)c(C(=O)N5CCCNCC5)c4)c3)nn2CCCN2CCSCC2)C1` [Example 569, 2-[3-(4-Chloro-3-{[4-chloro-3-(1,4-diazepan-1-ylcarbonyl)phenyl]ethynyl}phenyl)-1-(3-thiomorpholin-4-ylpropyl)-1,4,6,7-tetrahydro-5H-pyrazolo[4,3-c]pyridin-5-yl]-2-oxoacetamide]: the IC50 was found to be 0.15 µM.

As for `NC(=O)N1CCc2c(c(-c3ccc(Cl)c(C#Cc4ccc(Cl)c(C(=O)N5CCCC5)c4)c3)nn2CCCN2CCSCC2)C1` [Example 570, 3-(4-Chloro-3-{[4-chloro-3-(pyrrolidin-1-ylcarbonyl)phenyl]ethynyl}phenyl)-1-(3-thiomorpholin-4-ylpropyl)-1,4,6,7-tetrahydro-5H-pyrazolo[4,3-c]pyridine-5-carboxamide], the IC50 was 0.26 µM.

Broadly, the IC50 is the concentration needed to halve the response being measured.
